Measured values taken from patent US10617736B2, “Method for modulating insulin-independent glucose transport using teneurin C-terminal associated peptide (TCAP)” (priority 2014, dated 2020).
Ends that are not written are not given here.

Columns and labels:
latrophilin-1 = target: T1, latrophilin-1 (Mus musculus, UniProt Q80TR1); assay: Co-localization of FITC-TCAP-1 with latrophilin-1 in Hypo E-38 cells; type: binding
T1 construct: only latrophilin 1 and 3 could be detected in this cell line or in the intact mouse brain; endogenous in cells; host or cells: Hypo E-38 (mHypoE-38) immortalized embryonic mouse hypothalamic neurons
T1 sequence (Q80TR1 29-1466): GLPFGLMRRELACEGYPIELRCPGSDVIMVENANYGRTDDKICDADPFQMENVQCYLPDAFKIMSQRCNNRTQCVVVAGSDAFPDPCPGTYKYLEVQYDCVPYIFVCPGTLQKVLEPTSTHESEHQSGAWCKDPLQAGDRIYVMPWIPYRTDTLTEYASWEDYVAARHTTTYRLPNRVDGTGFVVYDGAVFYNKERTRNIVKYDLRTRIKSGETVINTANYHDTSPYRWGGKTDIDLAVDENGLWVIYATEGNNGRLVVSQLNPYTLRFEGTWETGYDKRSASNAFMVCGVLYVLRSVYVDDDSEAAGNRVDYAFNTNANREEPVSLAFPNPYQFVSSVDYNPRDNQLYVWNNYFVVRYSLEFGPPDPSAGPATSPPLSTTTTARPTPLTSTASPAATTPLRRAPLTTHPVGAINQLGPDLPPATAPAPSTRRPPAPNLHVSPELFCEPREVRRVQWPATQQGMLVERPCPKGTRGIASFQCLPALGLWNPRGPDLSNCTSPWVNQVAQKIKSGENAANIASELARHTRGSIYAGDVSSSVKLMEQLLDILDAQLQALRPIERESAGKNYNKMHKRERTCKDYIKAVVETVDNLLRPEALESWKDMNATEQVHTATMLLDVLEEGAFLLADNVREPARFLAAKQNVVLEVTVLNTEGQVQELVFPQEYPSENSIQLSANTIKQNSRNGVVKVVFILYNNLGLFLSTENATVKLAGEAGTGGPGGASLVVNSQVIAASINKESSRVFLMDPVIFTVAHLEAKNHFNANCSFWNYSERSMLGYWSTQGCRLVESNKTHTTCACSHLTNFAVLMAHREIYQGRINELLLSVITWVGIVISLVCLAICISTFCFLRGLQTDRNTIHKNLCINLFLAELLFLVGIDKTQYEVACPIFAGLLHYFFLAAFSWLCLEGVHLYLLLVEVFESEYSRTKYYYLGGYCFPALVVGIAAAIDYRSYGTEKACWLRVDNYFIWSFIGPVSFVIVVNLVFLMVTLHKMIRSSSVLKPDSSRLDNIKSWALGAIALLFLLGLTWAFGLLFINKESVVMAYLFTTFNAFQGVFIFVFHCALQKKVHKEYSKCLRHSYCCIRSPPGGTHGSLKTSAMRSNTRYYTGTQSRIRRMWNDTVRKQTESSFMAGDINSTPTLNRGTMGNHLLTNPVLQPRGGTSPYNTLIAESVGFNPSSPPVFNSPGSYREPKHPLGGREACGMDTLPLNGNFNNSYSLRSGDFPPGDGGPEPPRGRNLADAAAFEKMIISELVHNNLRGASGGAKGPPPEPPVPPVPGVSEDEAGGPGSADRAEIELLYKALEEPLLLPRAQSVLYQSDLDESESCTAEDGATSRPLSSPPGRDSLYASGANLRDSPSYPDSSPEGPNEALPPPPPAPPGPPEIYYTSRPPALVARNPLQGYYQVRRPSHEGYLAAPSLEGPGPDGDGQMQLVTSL
Experimental: (§1) The [K8]-TCAP-1 peptide was labeled with fluorescein isothiocyanate (FITC) according to the EZ-label TITC Protein labeling kit (Pierce Biotechnology, Rockford Ill.). FITC was dissolved in dimethylformamide, mixed with the [K8]-TCAP-1 at a 24:1 excess molar ratio and incubated for 2 h at RT in the dark to allow for the conjugation of the primary amine of the lysine group. A dextran column was used to remove the unconjugated FITC and the absorbance of each fraction was measured at 280 nm to determine the elution point of the conjugated peptide in phosphate buffered saline (PBS; 0.1M phosphate, 0.15 M NaCl, pH7.2). The four fractions with the highest protein absorbance readings were combined and sterilize-filtered using an Acrodisc Syringe 0.2 μm Supor low protein binding filter (Pall Life Sciences, Ann Arbor, Mich.). […] The amount of the FITC required to be injected as a control was determined by applying different PBS-diluted preparations of FITC on a nitrocelluose membrate. The level of fluorescence was directly compared to that of a spot of the FITC-[K8]-TCAP-1 conjugate to be administered and that dilution was used for the administration after sterilize-filtration indicated above. Fluorescence was measured using an EP Chemi II Darkroom system (UVP, Upland, Calif.) with the sequential integration function of LabWorks Image acquisition and analysis software. […]

[1] = tested on: skeletal mouse muscle fibers; assay: FITC-TCAP-1 binding assay on skeletal mouse muscle sections; settings: fluorescence, co-staining with β-DG
Experimental: as §1

mHypoE-38 neurons [2] = assay: 3H-2-deoxyglucose uptake in mHypoE-38 hypothalamic neurons; type: cell-based, mouse; settings: Hypo-E38 cells, potassium-free media (FIG. 11F, G)
C2C12 myocytes = assay: 3H-2-deoxyglucose uptake in C2C12 myocytes; type: cell-based, mouse; settings: 100 nM
Experimental: The effect of TCAP-1 on glucose uptake in muscle cells was examined in a C2C12 mouse myocyte cell line. C2C12 myocytes were cultured in Dulbecco's Modified Eagle Medium (DMEM) containing 4500 mg/L D-glucose, L-glutamine, and 25 mM HEPES buffer, without sodium pyruvate or phenol red (Gibco, Cat. No. 21063029), supplemented with 20% heat-inactivated fetal bovine serum (FBS), 100 U/ml penicillin and 100 μg/ml streptomycin. Cells were maintained at 80% confluency at 37° C. in a humidified CO2 incubator. To initiate differentiation, myocytes were further cultured in DMEM supplemented with 10% heat-inactivated horse serum (HS), transferrin, 100 U/ml penicillin and 100 μg/ml streptomycin. Myocytes were allowed to differentiate into multi-nucleated myotubes for 5 days before experimentation. 24 hours prior to experimentation, medium was changed. At day 5 of differentiation, cells were deprived of serum and incubated in Minimal Essential Medium containing 1000 mg/L D-glucose, L-glutamine, without nucleosides (Gibco, Cat. No. 12561049) for 5 hours at 37° C. prior to incubation with insulin, TCAP-1, or saline. Cells were washed twice in glucose-free HEPES-buffered solution (HBS), containing 140 mM NaCl, 20 mM HEPES, 5 mM KCl, 2.5 mM MgSO4 and 1 mM CaCl2, followed by determinations of transport of 3H-2-deoxyglucose for 10 minutes at 0.5 μCi/ml at room temperature. Uptake of 3H-2-deoxyglucose was stopped immediately after 10 minutes with three washes of ice-cold 0.9% NaCl solution. Parallel experiments with 5 μM of cytochalasin B were done to ensure that glucose uptake was of transporter-inhibitable transport The cells were digested with 1 ml of 0.05 N NaOH. Cell lysates were used for determination of radioactivity by a beta liquid scintillation counter. Experiments were repeated three times with 3 wells per condition per replication. […] Cell lysates were used for determination of radioactivity by a beta liquid scintillation counter. […]

mHypoE-38 neurons [3] = assay: 3H-2-deoxyglucose uptake in mHypoE-38 hypothalamic neurons; type: cell-based, mouse
Experimental: The effect of TCAP-1 on glucose uptake in brain cells was examined in immortalized […] hypothalamic cells. Immortalized mHypoE-38 hypothalamic embryonic mouse neurons (gift from Dr. Denise Belsham, University of Toronto) were grown in Dulbecco's Modified Eagle Medium (DMEM) containing 4500 mg/L D-glucose, L-glutamine, and 25 mM HEPES buffer, without sodium pyruvate or phenol red (Gibco, Cat. No. 21063029), supplemented with 5% heat-inactivated fetal bovine serum (FBS), 100 U/ml penicillin and 100 μg/ml streptomycin. Cells were maintained at 60-70% confluency at 37° C. in a humidified CO2 incubator. To passage, cells were washed once in sterile PBS, trypsinized and seeded at a density of 100,000 cells per 3.5 cm plate and allowed to grow for 2-3 days. 24 hours prior to experimentation, medium was changed. mHypoE-38 hypothalamic cells were grown in 6-well tissue culture dishes (Corning Incorporated, Cat. No. 3516) at a seeding density of200 000 cells/9.5 cm^2 well in a 37° C. normoxic incubator. Cultures were grown for 36 hours to 85% confluence prior to experimentation. At day 3 post-plating, cells were washed twice with Locke's buffer (154 mM NaCl, 5.6 mM KCl, 2.3 mM CaCl2, 3.6 mM NaHCO3, 5 mM HEPES) without serum and glucose. The culture was incubated in the Locke's buffer for 1 hour at 37° C. followed by exposure to 100 nM insulin, 100 nM TCAP-1, 100 nM SC-TCAP-1, or saline. KCl (40 mM) and […] (0.5 μCi/ml) were added to culture 5 minutes before termination of treatment exposure. Uptake of ^3H-2-deoxyglucose was stopped immediately after 5 minutes with three washes of ice-cold 0.9% NaCl solution. Parallel experiments with 5 μM of cytochalasin B were performed to ensure that glucose uptake was of transporter-inhibitable transport. The cells were digested with 1 ml of 0.05 N NaOH at 0, 15, 30, 45, 60, 90 and 120 minutes after treatment. Cell lysates were used for determination of radioactivity by a beta liquid scintillation counter. Experiments were repeated three times with 3 wells pear condition per replication. […] hypothalamic cells were cultured as above and treated with 100 nM insulin, 100 nM TCAP-1 or saline, exposed to 5.6 mM or 40 mM KCl and 0.5 μCi/well 3H-2-deoxy glucose, and subsequently lysed with 50 mM NaOH. Radioactivity in cell lysates was counted using a liquid scintillation counter.

Row | co-localization with latrophilin-1 immunoreactivity (latrophilin-1) | Substance | binding to 5 μm sections of mouse gastrocnemius muscle [1] | 3HDG uptake in potassium-free media (mHypoE-38 neurons [2]) | 3H-2-deoxyglucose uptake (C2C12 myocytes; 90 minutes) [%] | 3H-2-deoxyglucose uptake (C2C12 myocytes; after 30 minutes) [%] | 3H-2-deoxyglucose uptake (mHypoE-38 neurons [3]; 100 nM, 5.6 mM KCl (low KCl)) [%] | 3H-2-deoxyglucose uptake (mHypoE-38 neurons [3]; 100 nM, 40 mM KCl exposure) [%] | 3H-2-deoxyglucose uptake value relative to baseline (mHypoE-38 neurons [3]; 100 nM, 40 mM KCl, 45 minutes) [%] | 3HDG uptake in whole cells over time (mHypoE-38 neurons [3]; Hypo-E38 cells (FIG. 11C-E)) | 3H-2-deoxyglucose uptake (mHypoE-38 neurons [3]; cells pretreated with MEK inhibitor (U0126) for 1 hour, 40 mM KCl) | 3H-2-deoxyglucose uptake (mHypoE-38 neurons [3]; non-MEK-inhibited cells, 40 mM KCl)
1 | strong co-localization | FITC-TCAP-1: [K8]-TCAP-1 peptide labeled with fluorescein isothiocyanate (FITC) (QQLLGTGKVQGYDGYFVLSVEQYLELSDSANNIHFMRQSEI; ends and bridges not checked; also: FITC label, attachment site not given here) | preferentially binds to the membranes of individual skeletal mouse muscle fibers |  |  |  |  |  |  |  |  | 
2 |  | insulin |  | decreased insulin-dependent glucose uptake to baseline levels | 332.321±87.296 | 284.520±47.129 | 91.423±5.226 | 288.572±24.527 | 253±21.38 | uptake in 3HDGlucose within 30 min and remained high until after 60 min | 108.069±13.671 | 162.846±1.813
